Experimental findings from US11554131B2, “Mixture of HMOs for treating autoimmune diseases” (Glycom A/S, priority 2018, dated 2023) are described below.

Assay [1] deals with non-obese diabetic (NOD) mouse model of diabetes and Sjögren's Syndrome. Description: NOD mouse model: histology of salivary and lacrimal glands and pancreas. In kind it is in vivo. Particulars: NOD mice, drinking water, 12 weeks, compared to control mice; for inflammation of the salivary and lacrimal glands (exocrine glands): corresponding to a human dose of about 10 g/day. The text has this:
The anti-inflammatory effect of HMOs is investigated in the non-obese diabetic (NOD) mouse model of diabetes and Sjögren's Syndrome.
(§1) The mice are divided into four groups (n=8) with a control group receiving standard tap water, and the three treatment groups receiving supplementation with 2′-FL, mixture of 2′-FL and DFL (in a 4:1 ratio by weight), or 6′-SL in the drinking water, corresponding to a human daily dose of about 10 grams (calculated by metabolic rate and daily water consumption of NOD mice strains).
(§2) The mice receive the treatment for 12 weeks with bi-weekly water changes. From 12 weeks of age, the blood-glucose levels of the mice are checked weekly. Mice with blood-glucose levels above 7 mmol/l are closely monitored and euthanised (and excluded from the study) if their blood glucose levels increase to ≥12 mmol/l on two consecutive measurements.
(§3) After 12 weeks treatment the mice are euthanised, and the following are sampled; serum, pancreas, salivary glands, Haarderian lacrimal glands, extraorbital lacrimal glands, as well as caecum and colon content.
The salivary and lacrimal glands are analysed by measuring the total area of inflammatory foci in relation to the total gland size on eight (salivary glands) and two (lacrimal glands) haematoxylin and eosin-stained paraffin-embedded sections per mouse. The pancreas is similarly analysed using histological sections scoring a minimum of 25 (preferably 50) islets of Langerhans for the degree of insulitis with a score ranging from 0-3 (0=no insulitis, 1=peri-insulitis, 2=infiltratory insulitis compromising ≤50% of the islet, 3=infiltratory insulitis compromising ≥50% of the islet).

The nature of assay [2]: NOD mouse model: short chain fatty acids in caecum content and serum. It counts as in vivo. The settings on record: NOD mice, 12 weeks; for acetate concentration in serum: compared to control animals.
From the text: as §1, §2, §3
Caecum content and serum are used to measure the concentration of short chain fatty acids, namely acetate, propionate and butyrate. Faecal samples obtained at baseline together with colon content sampled after euthanasia are used for 16S rRNA genomic sequencing of the microbiota.

For the molecule 2′-fucosyllactose [2′-FL], in assay [1], the “insulitis of the pancreas” value is given as “reduced”; the “inflammation of the salivary and lacrimal glands (exocrine glands)” value was “reduce”. In addition, in assay [2], the “acetate concentration in serum” value is “increases”.

As for `CC(=O)N[C@H]1[C@H]([C@H](O)[C@H](O)CO)O[C@@](OC[C@H]2O[C@@H](O[C@H]3[C@H](O)[C@@H](O)[C@H](O)O[C@@H]3CO)[C@H](O)[C@@H](O)[C@H]2O)(C(=O)O)C[C@@H]1O` [6′-SL, 6′-sialyllactose], in assay [1], the “insulitis of the pancreas” value was “reduced”; the “inflammation of the salivary and lacrimal glands (exocrine glands)” value is reported as “reduce”. In assay [2], the “acetate concentration in caecum” value is recorded as “increase”, the “concentration of caecum butyrate” value was “increase” and the “acetate concentration in serum” value is listed as “increase”.
